Tests used:
[1] = target: Ribosomal protein S6 kinase alpha-4 (Homo sapiens) (UniProt O75676); conditions: Compound concentration 1000.0 nM
[2] = target: T1, Serine/threonine-protein kinase TBK1 (Homo sapiens) (UniProt Q9UHD2); assay: TBK1(h) Eurofins kinase panel; conditions: Compound concentration 1.0 uM
T1 sequence (whole entry): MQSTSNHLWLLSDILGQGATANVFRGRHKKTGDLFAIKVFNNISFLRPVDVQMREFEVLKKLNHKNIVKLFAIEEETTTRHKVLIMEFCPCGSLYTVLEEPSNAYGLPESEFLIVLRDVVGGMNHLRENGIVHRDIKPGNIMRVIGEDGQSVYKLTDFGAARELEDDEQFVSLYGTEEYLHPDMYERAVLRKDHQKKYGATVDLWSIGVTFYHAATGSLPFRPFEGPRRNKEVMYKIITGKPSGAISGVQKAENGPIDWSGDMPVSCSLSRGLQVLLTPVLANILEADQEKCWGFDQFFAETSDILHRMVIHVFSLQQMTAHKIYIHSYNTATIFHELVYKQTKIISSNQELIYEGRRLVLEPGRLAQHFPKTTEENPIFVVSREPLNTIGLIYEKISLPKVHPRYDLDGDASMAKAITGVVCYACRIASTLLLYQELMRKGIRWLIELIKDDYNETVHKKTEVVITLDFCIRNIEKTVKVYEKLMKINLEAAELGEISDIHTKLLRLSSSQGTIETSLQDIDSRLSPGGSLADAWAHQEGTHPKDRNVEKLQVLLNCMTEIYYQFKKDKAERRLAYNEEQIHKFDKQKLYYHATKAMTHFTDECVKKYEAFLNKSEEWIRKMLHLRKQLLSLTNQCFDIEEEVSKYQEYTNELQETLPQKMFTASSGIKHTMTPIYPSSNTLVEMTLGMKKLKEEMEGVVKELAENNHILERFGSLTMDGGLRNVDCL

[3] = target: Myosin light chain kinase 2, skeletal/cardiac muscle (Homo sapiens) (UniProt Q9H1R3); assay: MYLK2(h) Eurofins kinase panel; conditions: Compound concentration 1.0 uM
[4] = target: PI3-kinase p110-delta/p85-alpha (Homo sapiens) (UniProt P27986+O00329); assay: PI3 Kinase(p110d/p85a)(h) Eurofins kinase panel; format: protein-complex assay; conditions: Compound concentration 1.0 uM
Ramos = assay: Ramos cell line Proliferation assay; format: functional, Homo sapiens; conditions: time 3 day
[5] = target: T2, Inhibitor of nuclear factor kappa-B kinase subunit alpha (Homo sapiens) (UniProt O15111); assay: IKKalpha(h) Eurofins kinase panel; conditions: Compound concentration 1.0 uM
T2 sequence (whole entry): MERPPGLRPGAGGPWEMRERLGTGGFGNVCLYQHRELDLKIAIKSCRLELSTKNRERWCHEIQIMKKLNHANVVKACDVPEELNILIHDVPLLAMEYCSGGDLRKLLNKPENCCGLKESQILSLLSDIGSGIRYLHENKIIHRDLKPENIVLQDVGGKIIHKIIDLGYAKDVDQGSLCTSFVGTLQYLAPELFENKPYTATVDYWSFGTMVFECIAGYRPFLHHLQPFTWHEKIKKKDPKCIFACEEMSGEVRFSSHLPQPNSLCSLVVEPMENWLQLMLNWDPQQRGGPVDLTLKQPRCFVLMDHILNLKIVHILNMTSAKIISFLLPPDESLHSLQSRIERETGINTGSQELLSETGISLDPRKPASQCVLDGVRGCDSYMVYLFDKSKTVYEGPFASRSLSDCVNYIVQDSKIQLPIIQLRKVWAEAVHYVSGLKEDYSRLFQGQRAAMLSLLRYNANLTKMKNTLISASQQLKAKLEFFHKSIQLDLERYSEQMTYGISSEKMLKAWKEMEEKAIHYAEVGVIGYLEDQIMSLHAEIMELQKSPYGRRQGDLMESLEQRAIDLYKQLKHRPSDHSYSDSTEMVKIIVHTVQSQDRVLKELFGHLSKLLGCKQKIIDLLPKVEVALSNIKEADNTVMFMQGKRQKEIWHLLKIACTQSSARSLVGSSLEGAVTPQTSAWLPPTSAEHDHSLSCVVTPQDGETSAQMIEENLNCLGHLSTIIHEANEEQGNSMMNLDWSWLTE

[6] = target: Serine/threonine-protein kinase PAK 2 (Homo sapiens) (UniProt Q13177); assay: PAK2(h) Eurofins kinase panel; conditions: Compound concentration 1.0 uM
Serine/threonine-protein kinase PAK 2 (Homo sapiens), sequence (Q13177 whole entry): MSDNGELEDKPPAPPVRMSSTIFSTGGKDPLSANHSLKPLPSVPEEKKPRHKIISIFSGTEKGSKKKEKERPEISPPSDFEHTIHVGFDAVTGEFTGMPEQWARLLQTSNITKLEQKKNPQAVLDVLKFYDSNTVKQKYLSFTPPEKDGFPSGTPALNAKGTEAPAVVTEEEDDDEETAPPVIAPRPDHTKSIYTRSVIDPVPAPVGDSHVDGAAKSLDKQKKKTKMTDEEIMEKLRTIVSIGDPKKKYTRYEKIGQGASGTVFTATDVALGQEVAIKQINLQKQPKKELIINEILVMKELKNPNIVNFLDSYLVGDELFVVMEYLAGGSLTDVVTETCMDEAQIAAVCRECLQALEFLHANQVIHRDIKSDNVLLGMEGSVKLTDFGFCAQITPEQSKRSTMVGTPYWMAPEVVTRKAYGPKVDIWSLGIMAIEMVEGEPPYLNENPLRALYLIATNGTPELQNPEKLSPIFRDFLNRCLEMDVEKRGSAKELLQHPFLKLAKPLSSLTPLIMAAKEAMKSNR

[7] = target: MAP/microtubule affinity-regulating kinase 3 (Homo sapiens) (UniProt P27448); assay: MARK3(h) Eurofins kinase panel; conditions: Compound concentration 1.0 uM
MAP/microtubule affinity-regulating kinase 3 (Homo sapiens), sequence (P27448 whole entry, looked up): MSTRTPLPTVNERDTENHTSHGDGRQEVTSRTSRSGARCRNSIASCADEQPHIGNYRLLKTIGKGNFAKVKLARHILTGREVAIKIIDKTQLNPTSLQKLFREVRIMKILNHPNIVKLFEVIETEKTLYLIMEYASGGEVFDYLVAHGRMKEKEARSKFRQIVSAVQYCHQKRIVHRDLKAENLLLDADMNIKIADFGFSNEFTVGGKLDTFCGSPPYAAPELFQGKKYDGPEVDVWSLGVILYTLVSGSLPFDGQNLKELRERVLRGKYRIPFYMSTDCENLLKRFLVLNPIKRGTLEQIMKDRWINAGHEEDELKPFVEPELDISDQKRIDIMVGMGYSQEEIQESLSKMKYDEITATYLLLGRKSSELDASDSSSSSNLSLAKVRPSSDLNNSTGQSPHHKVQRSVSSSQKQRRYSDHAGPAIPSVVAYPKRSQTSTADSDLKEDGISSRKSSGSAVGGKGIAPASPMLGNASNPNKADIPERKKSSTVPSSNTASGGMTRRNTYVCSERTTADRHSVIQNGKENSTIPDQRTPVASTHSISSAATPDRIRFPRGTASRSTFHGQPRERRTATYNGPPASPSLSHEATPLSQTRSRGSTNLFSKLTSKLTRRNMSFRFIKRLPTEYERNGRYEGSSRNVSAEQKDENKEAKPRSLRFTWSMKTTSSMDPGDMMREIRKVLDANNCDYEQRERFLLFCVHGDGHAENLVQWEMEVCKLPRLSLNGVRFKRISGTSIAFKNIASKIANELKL

[8] = target: T3, Serine/threonine-protein kinase 17A (Homo sapiens) (UniProt Q9UEE5); assay: DRAK1(h) Eurofins kinase panel; conditions: Compound concentration 1.0 uM
T3 sequence (whole entry): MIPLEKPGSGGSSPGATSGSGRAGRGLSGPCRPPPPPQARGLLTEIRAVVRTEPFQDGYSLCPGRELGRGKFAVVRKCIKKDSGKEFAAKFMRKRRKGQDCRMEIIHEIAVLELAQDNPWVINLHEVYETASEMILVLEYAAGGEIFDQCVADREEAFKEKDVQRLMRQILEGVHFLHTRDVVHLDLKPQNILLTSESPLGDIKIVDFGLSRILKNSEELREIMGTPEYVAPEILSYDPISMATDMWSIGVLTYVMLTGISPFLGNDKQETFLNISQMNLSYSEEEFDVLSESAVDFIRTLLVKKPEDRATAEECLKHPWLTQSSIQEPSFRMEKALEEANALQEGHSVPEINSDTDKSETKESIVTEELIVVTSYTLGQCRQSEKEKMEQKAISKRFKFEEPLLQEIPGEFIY

[9] = target: Mitogen-activated protein kinase kinase kinase kinase 1 (Homo sapiens) (UniProt Q92918); assay: HPK1(h) Eurofins kinase panel; conditions: Compound concentration 1.0 uM
Mitogen-activated protein kinase kinase kinase kinase 1 (Homo sapiens), sequence (Q92918 whole entry, looked up): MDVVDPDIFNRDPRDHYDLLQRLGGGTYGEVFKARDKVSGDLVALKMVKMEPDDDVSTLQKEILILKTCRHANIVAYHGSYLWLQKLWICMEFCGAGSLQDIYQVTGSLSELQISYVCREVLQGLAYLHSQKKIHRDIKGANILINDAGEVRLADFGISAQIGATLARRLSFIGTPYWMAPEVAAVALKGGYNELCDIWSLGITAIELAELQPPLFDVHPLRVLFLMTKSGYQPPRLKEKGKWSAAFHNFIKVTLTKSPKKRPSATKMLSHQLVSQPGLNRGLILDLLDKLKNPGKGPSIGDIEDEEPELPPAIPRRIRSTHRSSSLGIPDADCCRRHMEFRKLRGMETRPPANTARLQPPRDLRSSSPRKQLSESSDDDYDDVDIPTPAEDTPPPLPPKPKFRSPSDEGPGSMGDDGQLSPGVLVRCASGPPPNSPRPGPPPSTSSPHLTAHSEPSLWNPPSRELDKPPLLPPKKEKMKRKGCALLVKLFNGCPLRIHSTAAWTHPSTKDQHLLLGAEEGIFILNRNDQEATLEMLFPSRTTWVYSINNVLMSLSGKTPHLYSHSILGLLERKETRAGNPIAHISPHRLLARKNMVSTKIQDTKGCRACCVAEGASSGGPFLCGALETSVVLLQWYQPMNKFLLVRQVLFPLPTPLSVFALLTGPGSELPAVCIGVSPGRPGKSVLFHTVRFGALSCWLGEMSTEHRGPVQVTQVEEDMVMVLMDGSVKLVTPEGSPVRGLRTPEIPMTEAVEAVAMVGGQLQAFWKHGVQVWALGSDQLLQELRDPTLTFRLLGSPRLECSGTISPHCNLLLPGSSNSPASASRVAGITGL

A549 = assay: A549 cell line Proliferation assay; format: functional, Homo sapiens; conditions: time 3 day
[10] = target: Interleukin-1 receptor-associated kinase 1 (Homo sapiens) (UniProt P51617); assay: IRAK1(h) Eurofins kinase panel; conditions: Compound concentration 1.0 uM
Interleukin-1 receptor-associated kinase 1 (Homo sapiens), sequence (P51617 whole entry, looked up): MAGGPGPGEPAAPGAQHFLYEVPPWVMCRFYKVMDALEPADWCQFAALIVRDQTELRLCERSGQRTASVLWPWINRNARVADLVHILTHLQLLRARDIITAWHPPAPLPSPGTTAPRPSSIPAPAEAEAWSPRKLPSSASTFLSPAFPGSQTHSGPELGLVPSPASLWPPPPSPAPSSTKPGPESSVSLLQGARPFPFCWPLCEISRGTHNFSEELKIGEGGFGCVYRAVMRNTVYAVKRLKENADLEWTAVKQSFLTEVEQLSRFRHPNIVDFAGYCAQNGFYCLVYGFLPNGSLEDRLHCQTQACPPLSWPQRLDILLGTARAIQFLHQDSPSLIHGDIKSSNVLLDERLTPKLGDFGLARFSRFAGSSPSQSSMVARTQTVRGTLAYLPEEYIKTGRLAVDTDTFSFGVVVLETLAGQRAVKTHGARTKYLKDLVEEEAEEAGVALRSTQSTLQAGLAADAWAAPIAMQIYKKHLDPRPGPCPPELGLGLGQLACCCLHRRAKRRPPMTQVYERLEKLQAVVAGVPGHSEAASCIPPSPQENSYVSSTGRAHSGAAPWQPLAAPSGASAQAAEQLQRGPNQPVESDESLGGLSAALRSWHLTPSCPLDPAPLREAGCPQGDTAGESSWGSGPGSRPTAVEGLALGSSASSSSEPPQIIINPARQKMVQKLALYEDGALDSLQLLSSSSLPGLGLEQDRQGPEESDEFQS

[11] = target: Ribosomal protein S6 kinase alpha-1 (Homo sapiens, UniProt Q15418); conditions: Compound concentration 1.0 uM
[12] = target: Dual specificity protein kinase CLK2 (Homo sapiens) (UniProt P49760); assay: CLK2(h) Eurofins kinase panel; conditions: Compound concentration 1.0 uM
Dual specificity protein kinase CLK2 (Homo sapiens), sequence (P49760 whole entry, looked up): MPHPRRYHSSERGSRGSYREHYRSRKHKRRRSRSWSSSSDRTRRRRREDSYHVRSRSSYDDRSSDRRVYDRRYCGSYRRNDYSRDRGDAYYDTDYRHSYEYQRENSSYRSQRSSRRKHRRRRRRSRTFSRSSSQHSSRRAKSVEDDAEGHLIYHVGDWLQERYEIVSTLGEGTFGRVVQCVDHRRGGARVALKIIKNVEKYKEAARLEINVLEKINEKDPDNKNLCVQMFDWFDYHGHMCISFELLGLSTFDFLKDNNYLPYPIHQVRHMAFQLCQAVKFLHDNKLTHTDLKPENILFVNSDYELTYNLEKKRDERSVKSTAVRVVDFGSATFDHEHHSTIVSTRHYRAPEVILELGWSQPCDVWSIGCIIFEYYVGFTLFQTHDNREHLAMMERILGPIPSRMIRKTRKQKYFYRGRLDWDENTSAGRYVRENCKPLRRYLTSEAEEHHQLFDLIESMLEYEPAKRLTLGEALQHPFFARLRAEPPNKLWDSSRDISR

[13] = target: Ephrin type-A receptor 4 (Homo sapiens) (UniProt P54764); assay: EphA4(h) Eurofins kinase panel; conditions: Compound concentration 1.0 uM
Ephrin type-A receptor 4 (Homo sapiens), sequence (P54764 whole entry): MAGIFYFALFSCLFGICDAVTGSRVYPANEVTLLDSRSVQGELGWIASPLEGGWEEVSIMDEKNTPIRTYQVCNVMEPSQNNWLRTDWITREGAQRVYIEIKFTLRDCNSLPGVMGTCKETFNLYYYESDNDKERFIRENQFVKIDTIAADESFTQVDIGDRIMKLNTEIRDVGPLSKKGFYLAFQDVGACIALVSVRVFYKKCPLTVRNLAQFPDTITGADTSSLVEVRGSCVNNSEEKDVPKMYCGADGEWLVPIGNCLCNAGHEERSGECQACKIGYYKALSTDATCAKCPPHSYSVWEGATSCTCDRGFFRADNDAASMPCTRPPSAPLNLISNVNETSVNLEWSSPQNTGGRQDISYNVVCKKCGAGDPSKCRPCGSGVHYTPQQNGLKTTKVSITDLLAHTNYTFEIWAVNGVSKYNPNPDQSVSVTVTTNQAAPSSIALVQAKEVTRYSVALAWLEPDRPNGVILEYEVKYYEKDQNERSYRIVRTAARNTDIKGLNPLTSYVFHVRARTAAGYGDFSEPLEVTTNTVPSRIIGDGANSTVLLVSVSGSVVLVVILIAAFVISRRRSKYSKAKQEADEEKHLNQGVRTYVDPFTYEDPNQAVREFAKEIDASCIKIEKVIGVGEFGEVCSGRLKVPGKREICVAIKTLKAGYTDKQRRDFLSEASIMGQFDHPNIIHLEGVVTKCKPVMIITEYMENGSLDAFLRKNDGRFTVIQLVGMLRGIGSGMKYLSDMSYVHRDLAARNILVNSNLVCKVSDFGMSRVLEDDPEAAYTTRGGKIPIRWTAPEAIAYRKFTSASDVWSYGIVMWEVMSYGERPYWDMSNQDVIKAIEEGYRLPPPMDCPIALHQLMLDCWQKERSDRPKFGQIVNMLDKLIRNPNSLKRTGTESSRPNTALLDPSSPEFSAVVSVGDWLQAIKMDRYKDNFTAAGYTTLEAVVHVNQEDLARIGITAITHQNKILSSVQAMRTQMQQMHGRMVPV

[14] = target: Serine/threonine-protein kinase Nek7 (Homo sapiens) (UniProt Q8TDX7); assay: NEK7(h) Eurofins kinase panel; conditions: Compound concentration 1.0 uM
Serine/threonine-protein kinase Nek7 (Homo sapiens), sequence (Q8TDX7 whole entry, looked up): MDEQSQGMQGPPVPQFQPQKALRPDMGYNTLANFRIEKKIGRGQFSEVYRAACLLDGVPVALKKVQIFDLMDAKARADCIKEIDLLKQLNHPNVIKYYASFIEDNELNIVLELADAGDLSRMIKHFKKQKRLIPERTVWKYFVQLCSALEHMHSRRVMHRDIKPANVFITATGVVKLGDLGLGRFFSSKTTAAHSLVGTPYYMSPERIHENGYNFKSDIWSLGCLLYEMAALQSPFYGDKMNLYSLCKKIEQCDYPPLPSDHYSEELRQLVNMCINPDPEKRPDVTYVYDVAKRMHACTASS

LNCaP C4-2B = assay: C4-2B cell line Proliferation assay; format: functional, Homo sapiens; conditions: time 6 day
SW780 = assay: SW780 cell line Proliferation assay; format: functional, Homo sapiens; conditions: time 3 day
SNU-398 = assay: Snu398 cell line Proliferation assay; format: functional, Homo sapiens; conditions: time 3 day

Row | Compound | residual activity [1] [%] | % residual kinase activity [2] [%] | % residual kinase activity [3] [%] | % residual kinase activity [4] [%] | Cell Proliferation IC50 (Ramos) [µM] | % residual kinase activity [5] [%] | % residual kinase activity [6] [%] | % residual kinase activity [7] [%] | % residual kinase activity [8] [%] | % residual kinase activity [9] [%] | Cell Proliferation IC50 (A549) [µM] | % residual kinase activity [10] [%] | % residual kinase activity [11] [%] | % residual kinase activity [12] [%] | % residual kinase activity [13] [%] | % residual kinase activity [14] [%] | Cell Proliferation IC50 (LNCaP C4-2B) [µM] | Cell Proliferation IC50 (SW780) [µM] | Cell Proliferation IC50 (SNU-398) [µM]
1 | CC1=C(C#N)C(c2ccc3c(c2)c(NC(=O)c2ccccc2C)nn3C)C(C#N)=C(C)N1 [BAY-974] | 100 |  |  |  |  |  |  |  |  |  |  |  |  |  |  |  |  |  | 
2 | CCc1ccccc1C(=O)Nc1n[nH]c2c(C)c(F)c(C3C(C#N)=C(C)N(C)C(C)=C3C#N)cc12 [BAY-3827] |  | 106 | 89 | 103 | 12.1 | 107 | 105 | 70 | 119 | 57 | 25.8 | 99 | 7 | 93 | 106 | 112 | >10 | 10.3 | 7.3

From ChEMBL document CHEMBL4507319 (2021)
